From patent publication US11591341B2 (ALIGOS THERAPEUTICS, INC., priority 2019, dated 2023)

Tested on: HBV
Test: HBV-DNA Antiviral Assay Using HepG2.117 Cells (intracellular HBV DNA by qPCR)
Type: cell-based, hepatitis B virus (genotype D)
Conditions: Hepatitis B virus, HepG2.117
Experimental: The following assay procedure describes the HBV antiviral assay, using HepG2.117 cells, which carry a stably integrated genotype D HBV genome under the control of a Tet-off promoter, and intracellular HBV DNA quantification as endpoint. Cell viability is assessed in parallel by measuring the intracellular ATP content using ATPlite (Perkin Elmer).
On day 0, HepG2.117 cells (which are maintained in routine cell culture with doxycycline present in the medium at a final concentration of 1 μg/mL) were seeded in 96-well plates (white with clear bottom) at a density of 2.0×10^4 cells/well (0.1 mL/well) in medium without doxycycline to induce pgRNA transcription and subsequent formation of HBV particles. The cells were incubated at 37° C. and 5% CO2.
On day 1, medium was removed from each well, the test articles were diluted in culture medium without doxcycyline and 100 μL was added to cell culture wells (9 concentrations, 4-fold dilution). For each plate, 6 untreated (merely DMSO) wells were included. The final concentration of DMSO in the culture medium was 2%. Each plate was prepared in duplicate (one for HBV DNA extraction, one for ATPlite measurement). The cells were incubated at 37° C. and 5% CO2 for 3 days.
On day 4, cell viability was assessed using ATPlite and cell lysates were prepared for HBV DNA extraction and subsequent quantification by qPCR.
Medium was removed from each well and 100 μL of 0.33% NP-40 in H2O was added to each well. Plates were sealed, incubated at 4° C. for 5 mins, vortexed extensively and centrifuged briefly. Next, 35 μL of lysate was added to 65 μL QuickExtract DNA Extraction Solution (Epicentre) in a PCR plate for each well. PCR plate was incubated at 65° C. for 6 mins, 98° C. for 2 mins and finally cooled to 4° C. HBV DNA was then quantified by qPCR with HBV-specific primers and probes as specified in Table 3 using the Bio-Rad SSOAdvanced Universal Probes Supermix on a CFX96 machine (Bio-Rad). The PCR cycle program consisted of 95° C. for 3 mins, followed by 40 cycles at 95° C. for 10 sec and 60° C. for 30 sec.
A DNA standard was prepared by dilution of an IDT gBlock corresponding to the amplicon with concentrations ranging from 10^2 to 10^8 copies/input (i.e. per 4 μL) and used to generate a standard curve by plotting Cq values vs. HBV DNA standard concentration. The quantity of HBV DNA in each sample was determined by interpolating from the standard curve.
Cell viability was calculated as follows: % Cell viability=(luminescence value of test sample)/(average luminescence value of 2% DMSO control)×100%. HBV DNA inhibition was calculated as follows: 100−(HBV DNA copy number of test sample)/(average HBV DNA copy number of 2% DMSO control)×100%. No normalization to entecavir was required due to the excellent dynamic window of this assay. The CC50, EC50 and EC90 values were determined by dose-response curves fitted by GraphPad Prism using “log (agonist) vs. response—Variable slope”.

Structure (SMILES) | EC50 [nM]
CC1Cn2c(c(C(=O)N[C@@H](C)c3ccccc3F)n(-c3ccc(OC4CC4)cc3)c2=O)CN1C(=O)c1ccc(Br)c(Cl)c1 (mixture of isomers) [Example 334, (6SR)-7-(4-bromo-3-chloro-benzoyl)-2-[4-(cyclopropoxy)phenyl]-N-[(1S)-1-(2-fluorophenyl)ethyl]-6-methyl-3-oxo-6,8-dihydro-5H-imidazo[1,5-a]pyrazine-1-carboxamide] | 100 to 500
CC(NC(=O)c1c2n(c(=O)n1-c1ccc(OC3CC3)cc1)CCN(C(=O)c1ccc(Br)c(Cl)c1)C2)c1ccc(C#N)cc1F (racemic) [Example 340, 7-(4-bromo-3-chloro-benzoyl)-2-[4-(cyclopropoxy)phenyl]-3-oxo-N-[rac-(1S)-1-(4-cyano-2-fluoro-phenyl)ethyl]-6,8-dihydro-5H-imidazo[1,5-a]pyrazine-1-carboxamide] | 100 to 500
C[C@@H](NC(=O)c1c2n(c(=O)n1-c1ccc(OC3CC3)cc1)CCN(C(=O)c1ccc(Br)c(Cl)c1)C2)c1ccc(C#N)cc1F (racemic) [Example 341, 7-(4-bromo-3-chloro-benzoyl)-2-[4-(cyclopropoxy)phenyl]-3-oxo-N-[rac-(1R)-1-(4-cyano-2-fluoro-phenyl)ethyl]-6,8-dihydro-5H-imidazo[1,5-a]pyrazine-1-carboxamide] | 500 to 5000
CC(NC(=O)c1c2n(c(=O)n1-c1ccc(OCC(F)(F)F)cc1)CCN(C(=O)c1ccc(Br)c(Cl)c1)C2)c1ccc(OC2COC2)cc1F (racemic) [Example 348, 7-(4-bromo-3-chloro-benzoyl)-3-oxo-N-[rac-(1R)-1-[2-fluoro-4-(oxetan-3-yloxy)phenyl]ethyl]-2-[4-(2,2,2-trifluoroethoxy)phenyl]-6,8-dihydro-5H-imidazo[1,5-a]pyrazine-1-carboxamide] | 500 to 5000
C[C@H](NC(=O)c1c2n(c(=O)n1-c1ccc(OC3CC3)cc1)CCN(C(=O)c1ccc(Br)c(Cl)c1)C2)c1ccc(OCC(N)=O)cc1-n1cccn1 (racemic) [Example 378, 7-(4-bromo-3-chloro-benzoyl)-2-[4-(cyclopropoxy)phenyl]-3-oxo-N-[rac-(1S)-1-[4-(2-amino-2-oxo-ethoxy)-2-pyrazol-1-yl-phenyl]ethyl]-6,8-dihydro-5H-imidazo[1,5-a]pyrazine-1-carboxamide] | > 5000
CC(NC(=O)c1c2n(c(=O)n1-c1ccc(OC3CC3)cc1)CCN(C(=O)c1ccc(Br)c(Cl)c1)C2)c1ccc(OCC(N)=O)cc1-n1cccn1 (racemic) [Example 379, 7-(4-bromo-3-chloro-benzoyl)-2-[4-(cyclopropoxy)phenyl]-3-oxo-N-[rac-(1R)-1-[4-(2-amino-2-oxo-ethoxy)-2-pyrazol-1-yl-phenyl]ethyl]-6,8-dihydro-5H-imidazo[1,5-a]pyrazine-1-carboxamide] | > 5000
CC(NC(=O)c1c2n(c(=O)n1-c1ccc(OC3CC3)cc1)CCN(C(=O)c1ccc(Br)c(Cl)c1)C2)c1cccc2nccnc12 (racemic) [Example 382, 7-(4-bromo-3-chloro-benzoyl)-2-[4-(cyclopropoxy)phenyl]-3-oxo-N-[rac-(1S)-1-quinoxalin-5-ylethyl]-6,8-dihydro-5H-imidazo[1,5-a]pyrazine-1-carboxamide] | < 100
C[C@@H](NC(=O)c1c2n(c(=O)n1-c1ccc(OC3CC3)cc1)CCN(C(=O)c1ccc(Br)c(Cl)c1)C2)c1cccc2nccnc12 (racemic) [Example 383, 7-(4-bromo-3-chloro-benzoyl)-2-[4-(cyclopropoxy)phenyl]-3-oxo-N-[rac-(1R)-1-quinoxalin-5-ylethyl]-6,8-dihydro-5H-imidazo[1,5-a]pyrazine-1-carboxamide] | 100 to 500
CC(Oc1ccc(CNC(=O)c2c3n(c(=O)n2-c2ccc(OC4CC4)cc2)CCN(C(=O)c2ccc(Br)c(Cl)c2)C3)c(F)c1)C(N)=O (racemic) [Example 394, 7-(4-bromo-3-chloro-benzoyl)-2-[4-(cyclopropoxy)phenyl]-N-[[2-fluoro-4-[rac-(1S)-2-amino-1-methyl-2-oxo-ethoxy]phenyl]methyl]-3-oxo-6,8-dihydro-5H-imidazo[1,5-a]pyrazine-1-carboxamide] | 100 to 500
C[C@@H](Oc1ccc(CNC(=O)c2c3n(c(=O)n2-c2ccc(OC4CC4)cc2)CCN(C(=O)c2ccc(Br)c(Cl)c2)C3)c(F)c1)C(N)=O (racemic) [Example 406, 7-(4-bromo-3-chloro-benzoyl)-2-[4-(cyclopropoxy)phenyl]-N-[[2-fluoro-4-[rac-(1R)-2-amino-1-methyl-2-oxo-ethoxy]phenyl]methyl]-3-oxo-6,8-dihydro-5H-imidazo[1,5-a]pyrazine-1-carboxamide] | 100 to 500
COc1ccc(C(C)NC(=O)c2c3n(c(=O)n2-c2ccc(-n4cccn4)cc2)CCN(C(=O)c2ccc(Br)c(Cl)c2)C3)c(F)c1 (racemic) [Example 413, 7-(4-bromo-3-chloro-benzoyl)-3-oxo-2-(4-pyrazol-1-ylphenyl)-N-[rac-(1R)-1-(2-fluoro-4-methoxy-phenyl)ethyl]-6,8-dihydro-5H-imidazo[1,5-a]pyrazine-1-carboxamide] | < 100
C[C@@H]1CN(c2ccc(-n3c(C(=O)NCc4ccccc4)c4n(c3=O)CCN(C(=O)c3ccc(Br)c(Cl)c3)C4)cc2)CCO1 (racemic) [Example 416, N-benzyl-7-(4-bromo-3-chloro-benzoyl)-3-oxo-2-[4-[rac-(2R)-2-methylmorpholin-4-yl]phenyl]-6,8-dihydro-5H-imidazo[1,5-a]pyrazine-1-carboxamide] | 100 to 500
O=C(NCc1ccccc1)c1c2n(c(=O)n1-c1ccc(N3CCO[C@H](C(F)(F)F)C3)cc1)CCN(C(=O)c1ccc(Br)c(Cl)c1)C2 (racemic) [Example 417, N-benzyl-7-(4-bromo-3-chloro-benozyl)-3-oxo-2-[4-[rac-(2S)-2-(trifluoromethyl)morpholin-4-yl]phenyl]-6,8-dihydro-5H-imidazo[1,5-a]pyrazine-1-carboxamide] | 100 to 500
COc1ccc(C(C)NC(=O)c2c3n(c(=O)n2-c2ccc(OC4CC4)cc2)CCN(C(=O)c2ccc(Br)c(Cl)c2)C3)c(F)c1 (racemic) [Example 420, 7-(4-bromo-3-chloro-benzoyl)-2-[4-(cyclopropoxy)phenyl]-3-oxo-N-[rac-(1R)-1-(2-fluoro-4-methoxy-phenyl)ethyl]-6,8-dihydro-5H-imidazo[1,5-a]pyrazine-1-carboxamide] | < 100
COc1ccc([C@H](C)NC(=O)c2c3n(c(=O)n2-c2ccc(OC4CC4)cc2)CC(C)N(C(=O)c2ccc(Br)c(Cl)c2)C3)cc1 (mixture of isomers) [Example 437, (6RS)-7-(4-bromo-3-chloro-benzoyl)-2-[4-(cyclopropoxy)phenyl]-N-[(1S)-1-(4-methoxyphenyl)ethyl]-6-methyl-3-oxo-6,8-dihydro-5H-imidazo[1,5-a]pyrazine-1-carboxamide] | 500 to 5000
CC1Cn2c(c(C(=O)NCc3ccccc3-n3cc(F)cn3)n(-c3ccc(OC4CC4)cc3)c2=O)CN1C(=O)c1ccc(Br)c(Cl)c1 (racemic) [Example 440, rac-(6S)-7-(4-bromo-3-chloro-benzoyl)-2-[4-(cyclopropoxy)phenyl]-N-[[2-(4-fluoropyrazol-1-yl)phenyl]methyl]-6-methyl-3-oxo-6,8-dihydro-5H-imidazo[1,5-a]pyrazine-1-carboxamide] | < 100
C[C@@H]1Cn2c(c(C(=O)NCc3ccccc3-n3cc(F)cn3)n(-c3ccc(OC4CC4)cc3)c2=O)CN1C(=O)c1ccc(Br)c(Cl)c1 (racemic) [Example 441, rac-(6R)-7-(4-bromo-3-chloro-benzoyl)-2-[4-(cyclopropxy)phenyl]-N-[[2-(4-fluoropyrazol-1-yl)phenyl]methyl]-6-methyl-3-oxo-6,8-dihydro-5H-imidazo[1,5-a]pyrazine-1-carboxamide] | 100 to 500
COc1ccc([C@@H](C)NC(=O)c2c3n(c(=O)n2-c2ccc(OC4CC4)cc2)CC(C)N(C(=O)c2ccc(Br)c(Cl)c2)C3)cc1 (mixture of isomers) [Example 449, (6RS)-7-(4-bromo-3-chloro-benzoyl)-2-[4-(cyclopropoxy)phenyl]-N-[(1R)-1-(4-methoxyphenyl)ethyl]-6-methyl-3-oxo-6,8-dihydro-5H-imidazo[1,5-a]pyrazine-1-carboxamide] | 500 to 5000
